Data taken from paper PMC3589659 (Investigational New Drugs, 2012).
Where two headings read alike, the source gives them in different places. Marks after values point to notes of the source that are not given here.

Legend:
[1] = system: patients with advanced solid tumors; details: human, in vivo
[2] = system: pMAPK in epidermal keratinocytes; test: Pharmacodynamics: immunohistochemistry on skin punch biopsies, pMAPK; details: pretreatment versus on-therapy (Day 21)
clinical = details: human, in vivo; for AUC(0-t): AUC0–24,ss; for CL/F: CL/Fss; for Cmax: Cmax,ss; for Vd/F: Vz/Fss
[3] = system: Ki-67 in epidermal keratinocytes; details: doses of ≥ 55 mg/day, Day 21 versus pretreatment
advanced solid tumors = test: Antitumor activity, objective tumor response by RECIST 1.0
[4] = Plasma pharmacokinetics, non-compartmental analysis; details: 65 mg once daily, Day 21, individual values of 2 patients
[5] = human, in vivo
[6] = system: p27^KIP1 in epidermal keratinocytes; test: Pharmacodynamics: immunohistochemistry on skin punch biopsies, p27KIP1; details: doses of ≥ 55 mg/day, Day 21
[7] = system: patients with advanced solid tumors; test: Phase I dose escalation: dose-limiting toxicities and maximum tolerated dose; details: oral once daily, 3-week-on/1-week-off schedule
[8] = system: patients with advanced solid tumors; test: Safety and tolerability: adverse events graded by CTCAE version 3.0; format: in vivo, human
[9] = system: pAkt in epidermal keratinocytes; test: Pharmacodynamics: immunohistochemistry on skin punch biopsies, pAkt; details: pretreatment versus on-therapy (Day 21)

## CN(C)C/C=C/C(=O)Nc1cc2c(Nc3ccc(F)c(Cl)c3)ncnc2cc1O[C@H]1CCOC1 [afatinib]
[1]
  Discontinued due to DLT, n (%): 4 (9.3) n (%)
[1]; 28 day
  DLTs occurring during the first treatment cycle, n (%): 11 (25.6) n (%)
  recommended dose for further studies using this schedule: 40 mg/day
[2]
  change in level of pMAPK in normal skin punch biopsies: No significant changes
clinical; 10 mg
  Tmax: 4 h
  half-life: 35.7 h
  AUC(0-t): 63.7 ng·h/mL
  CL/F: 2620 mL/min
  Cmax: 3.99 ng/mL
  Vd/F: 8080 L
clinical; 20 mg
  half-life: 43.2 h
  AUC(0-t): 455 ng·h/mL
  CL/F: 732 mL/min
  Cmax: 31.3 ng/mL
  Vd/F: 2740 L
clinical; 40 mg
  half-life: 42.8 h
  CL/F: 734 mL/min
  Cmax: 58.9 ng/mL
  Vd/F: 2720 L
clinical; 55 mg
  half-life: 35.1 h
  AUC(0-t): 1360 ng·h/mL
  CL/F: 653 mL/min
  Cmax: 90.8 ng/mL
  Vd/F: 2040 L
clinical; 65 mg
  Tmax: 9 h
[3]
  reduction of the number of Ki-67-positive cells in skin biopsies: 31%
Advanced solid tumors; 10 mg/day
  Discontinued due to disease progression, n (%): 3 (100.0) n (%)
Advanced solid tumors; 20 mg/day
  Discontinued due to disease progression, n (%): 2 (33.3) n (%)
Advanced solid tumors; 40 mg/day
  Discontinued due to disease progression, n (%): 3 (37.5) n (%)
Advanced solid tumors; 55 mg/day
  Discontinued due to disease progression, n (%): 8 (40.0) n (%)
Advanced solid tumors; 65 mg/day
  Discontinued due to disease progression, n (%): 1 (16.7) n (%)
Advanced solid tumors; RECIST 1.0, all doses
  confirmed objective responses: no confirmed objective responses
Advanced solid tumors; Total, all doses
  Discontinued due to disease progression, n (%): 17 (39.5) n (%)
Advanced solid tumors; one patient with CRC
  decrease in tumor size: 14%
Advanced solid tumors; one patient with NSCLC
  decrease in tumor size: 27%
Advanced solid tumors; one patient with parotid carcinoma, Cycle 4, maintained until Cycle 6
  tumor shrinkage: 13%
Advanced solid tumors; received at least 5 cycles of treatment
  patients with stable disease for at least 16 weeks: 8 patients
[4]
  t½,ss: 25.8 h
[5]
  time to reach steady-state: ≤ 8 days
[5]; 10 mg
  AUC0–24,ss,norm: 6.37 (99.8) [ng·h/mL]/mg
  Cmax,ss,norm: 0.399 (83.7) [ng/mL]/mg
[5]; 20 mg
  AUC0–24,ss,norm: 22.8 (61.8) [ng·h/mL]/mg
  Cmax,ss,norm: 1.57 (94.1) [ng/mL]/mg
[5]; 40 mg
  AUC0–24,ss,norm: 22.7 (69.1) [ng·h/mL]/mg
  Cmax,ss,norm: 1.47 (83.7) [ng/mL]/mg
[5]; 55 mg
  AUC0–24,ss,norm: 24.7 (68.1)^b [ng·h/mL]/mg
  Cmax,ss,norm: 1.65 (67.8)^b [ng/mL]/mg
[6]
  increase in the total number of p27^KIP1-positive epidermal keratinocytes versus pretreatment: about 16%
[7]
  maximum tolerated dose (MTD): 55 mg/day
[8]; 10 mg
  drug-related diarrhea: no drug-related diarrhea was observed
[8]; 10 mg dose cohort
  treatment-related Grade ≥2 AEs: No treatment-related Grade ≥2 AEs were observed
[8]; 20 mg
  drug-related diarrhea: no drug-related diarrhea was observed
[8]; 40 mg
  patients who developed diarrhea: 50%
[8]; 40 mg/day
  Discontinued due to other toxicity, n (%): 1 (12.5) n (%)
[8]; 55 mg
  patients who developed diarrhea: 90%
[8]; 55 mg/day
  Discontinued due to other toxicity, n (%): 4 (20.0) n (%)
[8]; 65 mg/day
  Discontinued due to other toxicity, n (%): 2 (33.3) n (%)
  patients who developed diarrhea: 100%
[8]; Total, all doses
  Discontinued due to other toxicity, n (%): 7 (16.3) n (%)
[8]; all doses
  Grade 4 or 5 AEs: No Grade 4 or 5 AEs were observed
  Grade ≥2 reductions in LVEF: No patients had Grade ≥2 reductions in LVEF
  cases in which diarrhea started within 1–7 days after treatment initiation: 80%
  patients who experienced a serious adverse event (SAE): 34.9%
  patients with drug-related AEs within their first 28-day cycle: 38 patients
  skin events considered to be related to afatinib: 91%
[8]; all doses, entire trial
  drug-related anorexia: 16.3%
  drug-related diarrhea: 65.1%
  drug-related epistaxis: 23.3%
  drug-related fatigue: 20.9%
  drug-related mucosal inflammation: 23.3%
  drug-related nausea: 41.9%
  drug-related rash: 58.1%
  drug-related stomatitis: 25.6%
  drug-related vomiting: 34.9%
[8]; majority of cases
  start of skin events after treatment initiation: 7 to 28 days
[8]; majority of cases (80 %)
  start of diarrhea after afatinib treatment initiation: 1 to 7 days
[8]; three deaths occurred
  deaths during afatinib administration considered to be related to afatinib: None
[9]
  change in level of pAkt in paired skin biopsies: no significant difference
